In brackets after ≈: the same amount, converted by molar mass. Where two headings read alike, the source gives them in different places. Residues, ends and D or L forms follow the SMILES beside them. No end group written: not given here.
Legend:
Settings in all cases: 10 mM phosphate buffer, 99.9% killing
Staphylococcus aureus = assay: Bacterial lysis assay (broth dilution), minimal bactericidal concentration; format: cell-based
Text: (§1) The assays for growth inhibition of a microbial target can be used to derive a minimum bactericidal concentration (MBC) value for the peptide, i.e., the concentration of peptide required to kill 99.9% of the microbial sample being tested. This value is well known to those in the art as representative of the effectiveness of a particular antimicrobial agent (e.g., an antibiotic) against a particular organism or group of organisms. In assays to detect the MBC of a peptide, growth inhibition of a bacterial population also can be measured with reference to the number of colony forming units (cfu) after exposure to a peptide relative to a control experiment without a peptide.
(§2) Bacterial lysis assay. Bacterial lysis assays were conducted in a manner similar to that described previously (Lehrer, R. I., M. E. Selsted, D. Szklarek, and F. J. 1983. Infect. Immun. 42: 10-4, 1983; Miller, M. A., R. F. Garry, J. M. Jaynes, and R. C. Montelaro, AIDS Res Hum Retroviruses 7: 511-519, 1991). Bacterial suspensions were cultured in Luria-Bertani Broth to mid-log growth phase and washed by two cycles of centrifugation and suspension in 10 mM phosphate buffer. The Abs600 of the suspension was adjusted with 10 mM phosphate buffer such that, upon dilution, 5-10x10^5 cfu/mL would be treated in the assay. Bacteria were incubated for 1h with two-fold dilutions of peptides (100µM to 100 nM) in 96-well plates using 10 mM phosphate buffer, pH 7.2, as a diluent. Ten-fold dilutions of bacteria were performed to 1:1000; a 100µl aliquot from each condition was spread on the surface of tryptic soy agar plates (Difco, Detroit, Mich.) which were incubated overnight. Colonies of surviving bacteria (cfu, colony-forming units) were counted and compared to untreated controls to determine the amount of peptide-induced killing under each condition. Log killing is defined as the log of the ratio of cfu present before and after treatment with peptide. The minimal bactericidal concentration, MBC, is the peptide concentration at which 99.9% (three log) killing is achieved (Pearson et al., Antimicrob. Agents Chemother. 18: 699-708, 1980).
(§3) Results. Representative gram positive (S. aureus) and gram negative (P. aeruginosa) clinical isolates were used as the index bacteria to survey the peptides described in this invention.
(§4) A limitation of many host-derived antimicrobial peptides is their decreased activity at physiologic (150 mM) NaCl concentration. See Friedrich et al., Antimicrobial Agents and Chemotherapy 43:1542-1548. The activity of eLLPs and LBUs of this invention were compared to an expanded list of clinical bacterial isolates. These are summarized in Table 2 by comparing their MBCs in phosphate buffer alone (low salt) and phosphate buffer containing 150 mM NaCl (physiologic conditions). Inspection of this table would lead one skilled in the art to conclude that the activity of eLLPs and LBUs compare favorably to the host derived antimicrobial peptides as it relates to the spectrum and potency of antimicrobial activity.

Psuedomonas aeruginosa = assay: as above; format: cell-based, Pseudomonas aeruginosa
Text: as §1, §2, §3, §4

[1] = tested on: Methicillin Resistant S. aureus; format: cell-based
Text: as §1, §2, §4

Compound | MBC (Staphylococcus aureus; 0 mM NaCl) | MBC (Staphylococcus aureus; 150 mM NaCl) | MBC (Psuedomonas aeruginosa; 0 mM NaCl) [µM] | MBC (Psuedomonas aeruginosa; 150 mM NaCl) [µM] | MBC ([1]; 0 mM NaCl) | MBC ([1]; 150 mM NaCl)
CC(C)[C@H](N)C(=O)N[C@@H](CCCNC(=N)N)C(=O)N[C@@H](CCCNC(=N)N)C(=O)N[C@H](C(=O)N[C@@H](Cc1c[nH]c2ccccc12)C(=O)N[C@@H](CCCNC(=N)N)C(=O)N[C@@H](CCCNC(=N)N)C(=O)N[C@H](C(=O)N[C@H](C(=O)N[C@@H](CCCNC(=N)N)C(=O)N[C@H](C(=O)N[C@H](C(=O)N[C@@H](CCCNC(=N)N)C(=O)N[C@@H](CCCNC(=N)N)C(=O)N[C@@H](Cc1c[nH]c2ccccc12)C(=O)N[C@H](C(=O)N[C@@H](CCCNC(=N)N)C(=O)N[C@@H](CCCNC(=N)N)C(=O)N[C@H](C(=O)N[C@@H](CCCNC(=N)N)C(=O)N[C@@H](CCCNC(=N)N)C(=O)N[C@H](C(=O)N[C@@H](Cc1c[nH]c2ccccc12)C(=O)N[C@@H](CCCNC(=N)N)C(=O)N[C@@H](CCCNC(=N)N)C(=O)N[C@H](C(=O)N[C@H](C(=O)N[C@@H](CCCNC(=N)N)C(=O)N[C@H](C(=O)N[C@H](C(=O)N[C@@H](CCCNC(=N)N)C(=O)N[C@@H](CCCNC(=N)N)C(=O)N[C@@H](Cc1c[nH]c2ccccc12)C(=O)N[C@H](C(=O)N[C@@H](CCCNC(=N)N)C(=O)N[C@@H](CCCNC(=N)N)C(=O)O)C(C)C)C(C)C)C(C)C)C(C)C)C(C)C)C(C)C)C(C)C)C(C)C)C(C)C)C(C)C)C(C)C)C(C)C)C(C)C [WLBU-3, VRRVWRRVVRVVRRWVRRVRRVWRRVVRVVRRWVRR] (H-VRRVWRRVVRVVRRWVRRVRRVWRRVVRVVRRWVRR-OH) | 3,000 nanomolar | 600 nM (≈ 2.98 µg/mL) | 1.5 (≈ 7.44 µg/mL) | 0.8 (≈ 3.97 µg/mL) | 400 nM (≈ 1.98 µg/mL) | 100 nM (≈ 0.496 µg/mL)
RVVRVVRRVVRRVRRVVRRVVRVVRRVVRRVRRVVRRVVRVVRRVVRR [LBU-4, RVVRVVRRVVRRVRRVVRRVVRVVRRVVRRVRRVVRRVVRVVRRVVRR] | 800 nM | 800 nM | 0.8 | 0.4 | – | –
RRVVRRVRRVVRRVVRVVRRVVRRVRRVVRRVVRVVRRVVRR [LBU-3.5, RRVVRRVRRVVRRVVRVVRRVVRRVRRVVRRVVRVVRRVVRR] | 1000 nM | 600 nM | 0.4 | 0.4 | 1500 nM | 200 nM
RVVRVVRRWVRRVRRVWRRVVRVVRRWVRRVRRVWRRVVRVVRRWRVV [WLBU-4, RVVRVVRRWVRRVRRVWRRVVRVVRRRVVRVVRRWRVV RWVRR VRRVW] | 3,000 nanomolar | 600 nM | 1.5 | 0.4 | 1500 nM | 200 nM
CC(C)[C@H](NC(=O)[C@H](Cc1c[nH]c2ccccc12)NC(=O)[C@H](CCCNC(=N)N)NC(=O)[C@H](CCCNC(=N)N)NC(=O)[C@@H](NC(=O)[C@@H](NC(=O)[C@H](CCCNC(=N)N)NC(=O)[C@@H](NC(=O)[C@@H](NC(=O)[C@@H](N)CCCNC(=N)N)C(C)C)C(C)C)C(C)C)C(C)C)C(=O)N[C@@H](CCCNC(=N)N)C(=O)N[C@@H](CCCNC(=N)N)C(=O)O [WLBU-1, RVVRV VRRWV RR] (H-RVVRVVRRWVRR-OH) | 30.000 nM (≈ 0.0491 µg/mL) | 10.000 nM (≈ 0.0164 µg/mL) | 0.4 (≈ 0.655 µg/mL) | 2.5 (≈ 4.09 µg/mL) | 50,000 nanomolar | 50,000 nanomolar
CC(C)[C@H](NC(=O)[C@H](Cc1c[nH]c2ccccc12)NC(=O)[C@H](CCCNC(=N)N)NC(=O)[C@H](CCCNC(=N)N)NC(=O)[C@@H](NC(=O)[C@@H](NC(=O)[C@H](CCCNC(=N)N)NC(=O)[C@@H](NC(=O)[C@@H](NC(=O)[C@H](CCCNC(=N)N)NC(=O)[C@H](CCCNC(=N)N)NC(=O)[C@H](Cc1c[nH]c2ccccc12)NC(=O)[C@@H](NC(=O)[C@H](CCCNC(=N)N)NC(=O)[C@H](CCCNC(=N)N)NC(=O)[C@@H](NC(=O)[C@H](CCCNC(=N)N)NC(=O)[C@H](CCCNC(=N)N)NC(=O)[C@@H](NC(=O)[C@H](Cc1c[nH]c2ccccc12)NC(=O)[C@H](CCCNC(=N)N)NC(=O)[C@@H](N)CCCNC(=N)N)C(C)C)C(C)C)C(C)C)C(C)C)C(C)C)C(C)C)C(C)C)C(=O)N[C@@H](CCCNC(=N)N)C(=O)N[C@@H](CCCNC(=N)N)C(=O)O [WLBU-2, RRWVRRVRRV WRRVV RVVRR WVRR] (H-RRWVRRVRRVWRRVVRVVRRWVRR-OH) | 1000 nM (≈ 3.4 µg/mL) | 600 nM (≈ 2.04 µg/mL) | 0.2 (≈ 0.68 µg/mL) | 0.1 (≈ 0.34 µg/mL) | 200 nM (≈ 0.68 µg/mL) | 100 nM (≈ 0.34 µg/mL)
CC(C)[C@H](N)C(=O)N[C@@H](CCCNC(=N)N)C(=O)N[C@@H](CCCNC(=N)N)C(=O)N[C@H](C(=O)N[C@H](C(=O)N[C@@H](CCCNC(=N)N)C(=O)N[C@@H](CCCNC(=N)N)C(=O)N[C@H](C(=O)N[C@H](C(=O)N[C@@H](CCCNC(=N)N)C(=O)N[C@H](C(=O)N[C@H](C(=O)N[C@@H](CCCNC(=N)N)C(=O)N[C@@H](CCCNC(=N)N)C(=O)N[C@H](C(=O)N[C@H](C(=O)N[C@@H](CCCNC(=N)N)C(=O)N[C@@H](CCCNC(=N)N)C(=O)N[C@H](C(=O)N[C@@H](CCCNC(=N)N)C(=O)N[C@@H](CCCNC(=N)N)C(=O)N[C@H](C(=O)N[C@H](C(=O)N[C@@H](CCCNC(=N)N)C(=O)N[C@@H](CCCNC(=N)N)C(=O)N[C@H](C(=O)N[C@H](C(=O)N[C@@H](CCCNC(=N)N)C(=O)N[C@H](C(=O)N[C@H](C(=O)N[C@@H](CCCNC(=N)N)C(=O)N[C@@H](CCCNC(=N)N)C(=O)N[C@H](C(=O)N[C@H](C(=O)N[C@@H](CCCNC(=N)N)C(=O)N[C@@H](CCCNC(=N)N)C(=O)O)C(C)C)C(C)C)C(C)C)C(C)C)C(C)C)C(C)C)C(C)C)C(C)C)C(C)C)C(C)C)C(C)C)C(C)C)C(C)C)C(C)C)C(C)C)C(C)C)C(C)C [LBU-3, VRRVVRRVVRVVRRVVRRVRRVVRRVVRVV RRVVRR] (H-VRRVVRRVVRVVRRVVRRVRRVVRRVVRVVRRVVRR-OH) | 1500 nM (≈ 6.92 µg/mL) | 1500 nM (≈ 6.92 µg/mL) | 1.5 (≈ 6.92 µg/mL) | 0.8 (≈ 3.69 µg/mL) | – | –
CC(C)[C@H](NC(=O)[C@H](CCCNC(=N)N)NC(=O)[C@H](CCCNC(=N)N)NC(=O)[C@@H](NC(=O)[C@@H](NC(=O)[C@H](CCCNC(=N)N)NC(=O)[C@@H](N)CCCNC(=N)N)C(C)C)C(C)C)C(=O)N[C@@H](CCCNC(=N)N)C(=O)N[C@@H](CCCNC(=N)N)C(=O)N[C@H](C(=O)N[C@H](C(=O)N[C@@H](CCCNC(=N)N)C(=O)N[C@@H](CCCNC(=N)N)C(=O)N[C@H](C(=O)N[C@H](C(=O)N[C@@H](CCCNC(=N)N)C(=O)N[C@H](C(=O)N[C@H](C(=O)N[C@@H](CCCNC(=N)N)C(=O)N[C@@H](CCCNC(=N)N)C(=O)N[C@H](C(=O)N[C@H](C(=O)N[C@@H](CCCNC(=N)N)C(=O)N[C@@H](CCCNC(=N)N)C(=O)O)C(C)C)C(C)C)C(C)C)C(C)C)C(C)C)C(C)C)C(C)C)C(C)C [LBU-2, RRVVRRVRRV VRRVV RVVRR VVRR] (H-RRVVRRVRRVVRRVVRVVRRVVRR-OH) | 1500 nM (≈ 4.71 µg/mL) | >100,000 nanomolar | 1.5 (≈ 4.71 µg/mL) | 0.8 (≈ 2.51 µg/mL) | – | –

From patent publication EP1368050B1, “VIRUS DERIVED ANTIMICROBIAL PEPTIDES” (priority 2001, dated 2008)
